Source: PMC10641814 (Journal of Medicinal Chemistry, 2023)

Assays:
h5-HT6R = biological target: T1, h5-HT6R (Homo sapiens, UniProt P50406); experiment: 5-HT6R antagonist activity at Gs signaling, cAMP in 1321N1 cells (5-CT stimulated); type: cell-based; details: 1321N1 cells expressing h5-HT6R; read-out: EC50 (agonist, cAMP production)
T1 construct: expressed in transfected cells

hMAO-B = biological target: T2, hMAO-B (Homo sapiens, UniProt P27338); experiment: MAO-B reversibility study; type: biochemical; details: at concentrations corresponding to IC80, p-tyramine raised to 1 mM
T2 construct: purchased Sigma-Aldrich M7441
T2 sequence (P27338 1-520): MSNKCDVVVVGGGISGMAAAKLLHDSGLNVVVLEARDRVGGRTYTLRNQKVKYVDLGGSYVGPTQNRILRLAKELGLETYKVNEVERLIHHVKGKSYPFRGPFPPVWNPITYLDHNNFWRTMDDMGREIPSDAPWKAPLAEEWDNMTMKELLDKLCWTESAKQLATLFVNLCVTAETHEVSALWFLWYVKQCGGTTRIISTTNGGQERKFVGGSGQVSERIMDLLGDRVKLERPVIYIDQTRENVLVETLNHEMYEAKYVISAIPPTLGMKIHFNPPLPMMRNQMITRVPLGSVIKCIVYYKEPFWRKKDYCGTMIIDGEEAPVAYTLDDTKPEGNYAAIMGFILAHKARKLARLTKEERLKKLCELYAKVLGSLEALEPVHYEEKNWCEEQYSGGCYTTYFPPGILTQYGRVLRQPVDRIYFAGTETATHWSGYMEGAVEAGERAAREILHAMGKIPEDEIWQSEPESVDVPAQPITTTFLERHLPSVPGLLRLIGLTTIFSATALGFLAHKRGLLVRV

[1] = system: SCOP-induced cognitive impairment in rats; experiment: Scopolamine-induced amnesia in NOR test in rats; type: in vivo, rat; details: SCOP 1.25 mg/kg ip, PZ-1922 0.3, 1, 3 mg/kg ip, donepezil 1 and 3 mg/kg ip
Protocol: Rats were allowed to acclimate for at least 7 days before the beginning of the experimental procedure. During this week, the animals were handled at least 3 times. Behavioral testing was carried out during the light phase of the light/dark cycle. The experiments were conducted in accordance with the NIH Guide for the Care and Use of Laboratory Animals and were approved by the Ethics Committee for Animal Experiments, Maj Institute of Pharmacology. At least 1 h before the beginning of the experiments, rats were transferred to the experimental room for acclimation. Rats were tested in a dimly lit (25 lx) “open field” apparatus made of dull gray plastic (66 × 56 × 30 cm). After each measurement, the floor was cleaned and dried. […] For the scopolamine-induced memory impairment paradigm, 1 h ITI was chosen. During the first trial (familiarization T1), two identical objects (A1 and A2) were presented in opposite corners, approximately 10 cm from the walls of the open field. In the second trial (recognition, T2), one of the objects was replaced by a novel one (A = familiar and B = novel). […] Exploration time of the objects and the distance traveled were measured using the Any-maze video tracking system. Based on exploration time (E) of two objects during T2, the discrimination index (DI) was calculated according to the formula DI = (EB – EA)/(EA + AB).

[2] = biological target: the molecule itself; experiment: cryo-EM structure; purified receptor in detergent C12E9, pentameric SEC fractions concentrated to 10 mg/mL, incubated 5 min with PZ-1922 or PZ-1939 before freezing

T1 sequence (P50406 whole entry): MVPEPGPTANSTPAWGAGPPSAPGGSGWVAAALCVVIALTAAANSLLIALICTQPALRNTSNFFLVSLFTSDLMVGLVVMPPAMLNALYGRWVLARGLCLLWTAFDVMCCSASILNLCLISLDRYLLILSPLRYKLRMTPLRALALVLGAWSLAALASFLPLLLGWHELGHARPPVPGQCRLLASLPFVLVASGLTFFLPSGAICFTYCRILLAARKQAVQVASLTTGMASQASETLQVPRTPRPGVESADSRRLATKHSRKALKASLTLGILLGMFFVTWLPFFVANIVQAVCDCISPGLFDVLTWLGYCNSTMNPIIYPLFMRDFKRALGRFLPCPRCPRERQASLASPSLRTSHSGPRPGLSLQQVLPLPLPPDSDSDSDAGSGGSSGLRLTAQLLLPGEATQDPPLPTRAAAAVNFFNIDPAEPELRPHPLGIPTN

NCCc1c[nH]c2ccc(C(N)=O)cc12 [Compound 5-CT, 5-carboxamidotryptamine]
EC50 (h5-HT6R): 0.013 µM

C#CCN[C@@H]1CCc2ccccc21 [Rasagiline]
reversibility of MAO-B inhibition (recovery of MAO-B activity) (hMAO-B): irreversible inhibitor

C[C@H](NCc1ccc(OCc2cccc(F)c2)cc1)C(N)=O [Safinamide]
reversibility of MAO-B inhibition (recovery of MAO-B activity) (hMAO-B): reversible MAO-B inhibitors

COc1cc2c(cc1OC)C(=O)C(CC1CCN(Cc3ccccc3)CC1)C2 (centres unmarked) [donepezil]
effect on SCOP-induced short-term memory deficits (discrimination index) in NOR test [1]: reduced the memory deficits induced by SCOP

B1: mouse 5-HT3A receptor (receptor, UniProt P23979 24-489, looked up)
chain: SRRRATQARDTTQPALLRLSDHLLANYKKGVRPVRDWRKPTTVSIDVIMYAILNVDEKNQVLTTYIWYRQYWTDEFLQWTPEDFDNVTKLSIPTDSIWVPDILINEFVDVGKSPNIPYVYVHHRGEVQNYKPLQLVTACSLDIYNFPFDVQNCSLTFTSWLHTIQDINITLWRSPEEVRSDKSIFINQGEWELLEVFPQFKEFSIDISNSYAEMKFYVIIRRRPLFYAVSLLLPSIFLMVVDIVGFCLPPDSGERVSFKITLLLGYSVFLIIVSDTLPATAIGTPLIGVYFVVCMALLVISLAETIFIVRLVHKQDLQRPVPDWLRHLVLDRIAWILCLGEQPMAHRPPATFQANKTDDCSGSDLLPAMGNHCSHVGGPQDLEKTPRGRGSPLPPPREASLAVRGLLQELSSIRHFLEKRDEMREVARDWLRVGYVLDRLLFRIYLLAVLAYSITLVTLWSIWHYS
notes: 5-hydroxytryptamine (serotonin) receptor 3A, mouse; called full-length in the discussion; the construct is only said to be 'as previously described with some minor modifications'; The intracellular domain is only partly resolved; also called m5-HT3R; m5HT3R
stoichiometry N [2]: 5
